Laboratory results taken from paper PMC11212140, “Molecular Bidents with Two Electrophilic Warheads as a New Pharmacological Modality” (ACS Central Science, 2024).

Tests used:
[1] = test system: CaMK2a, CaMK2b, CaMK2d, CaMK2g; experiment: KiNativ profiling in H3255 cells; format: cell-based; details: 2.5 µM; Lys2; DLKPENLLLASK
Description: (§1) H3255 cells were plated with 6.5x10^6 per condition in fresh media in 15 cm plates and treated the 80% confluency for 2 hours with DMSO or 2.5 μM of ZNL-0056. To harvest cells, plates were washed 3 times with cold PBS, then collected by scraping into 4 mL of cold PBS containing protease and phosphatase inhibitors. Cells were pelleted by centrifugation at 1350 g at 4 ℃ for 5 minutes and immediately frozen in liquid nitrogen. The frozen samples were sent to ActivX Biosciences (La Jolla, CA) for the remainder of the KiNativ profiling experiment4. […]

[2] = test system: CDK11, CDK8; experiment: KiNativ profiling in H3255 cells; format: cell-based, human; details: 2.5 µM; Lys2; DLKPANILVMGEGPER
[3] = test system: T1, ATM; experiment: KiNativ profiling in H3255 cells; format: cell-based, human; details: 2.5 µM; ATP; QLVKGRDDLRQDAVMQQVFQMCNTLLQR
T1 construct: purchased ActivX Biosciences (KiNativ)
Description: as §1

[4] = test system: ZC1/HGK, ZC2/TNIK, ZC3/MINK; experiment: KiNativ profiling in H3255 cells; format: cell-based, human; details: 2.5 µM; Lys2; DIKGQNVLLTENAEVK
Description: as §1

[5] = test system: T2, ILK; experiment: KiNativ profiling in H3255 cells; format: cell-based, human; details: 2.5 µM
T2 construct: purchased ActivX Biosciences (KiNativ)

[6] = test system: T3, JAK1 domain1; experiment: KiNativ profiling in H3255 cells; format: cell-based, human; details: 2.5 µM; Activation Loop; QLASALSYLEDKDLVHGNVCTKNLLLAR
T3 construct: JAK1 domain1; purchased ActivX Biosciences (KiNativ)

[7] = test system: T4, ATR; experiment: KiNativ profiling in H3255 cells; format: cell-based, human; details: 2.5 µM; ATP; FYIMMCKPK
T4 construct: purchased ActivX Biosciences (KiNativ)
Description: (§2) Cellular target engagement assays […]
as §1

[8] = test system: T5, CDK10; experiment: KiNativ profiling in H3255 cells; format: cell-based, human; details: 2.5 µM; Lys2; DLKVSNLLMTDK
T5 construct: purchased ActivX Biosciences (KiNativ)
Description: as §2, §1

[9] = test system: T6, CLK1; experiment: KiNativ profiling in H3255 cells; format: cell-based, human; details: 2.5 µM; Lys2; LTHTDLKPENILFVQSDYTEAYNPK
T6 construct: purchased ActivX Biosciences (KiNativ)
Description: as §2, §1

[10] = test system: T7, DNAPK; experiment: KiNativ profiling in H3255 cells; format: cell-based, human; details: 2.5 µM, ATP
T7 construct: purchased ActivX Biosciences (KiNativ)
Description: as §2, §1

[11] = test system: T8, MAP2K2; experiment: KiNativ profiling in H3255 cells; format: cell-based, human; details: 2.5 µM; Lys2; HQIMHRDVKPSNILVNSR
T8 construct: purchased ActivX Biosciences (KiNativ)
Description: as §2, §1

[12] = test system: T9, MARK3; experiment: KiNativ profiling in H3255 cells; format: cell-based, human; details: 2.5 µM; Lys1; EVAIKIIDKTQLNPTSLQK
T9 construct: purchased ActivX Biosciences (KiNativ)
Description: as §2, §1

[13] = test system: MSK1 domain1, MSK2 domain1; experiment: KiNativ profiling in H3255 cells; format: cell-based, human; details: 2.5 µM; ATP Loop; VLGTGAYGKVFLVR
Description: as §2, §1

[14] = test system: MST3, MST4, YSK1; experiment: KiNativ profiling in H3255 cells; format: cell-based, human; details: 2.5 µM; Activation Loop; LADFGVAGQLTDTQIKR
Description: as §2, §1

[15] = test system: T10, NuaK2; experiment: KiNativ profiling in H3255 cells; format: cell-based, human; details: 2.5 µM; Lys1; LVAIKSIR
T10 construct: purchased ActivX Biosciences (KiNativ)
Description: as §2, §1

[16] = test system: T11, PAN3; experiment: KiNativ profiling in H3255 cells; format: cell-based, human; details: 2.5 µM, ATP
T11 construct: purchased ActivX Biosciences (KiNativ)
Description: as §2, §1

[17] = test system: T12, PCTAIRE1; experiment: KiNativ profiling in H3255 cells; format: cell-based, human; details: 2.5 µM; Lys1; SKLTDNLVALKEIR
T12 construct: purchased ActivX Biosciences (KiNativ)
Description: as §2, §1

[18] = test system: T13, PKD2; experiment: KiNativ profiling in H3255 cells; format: cell-based, human; details: 2.5 µM; Lys1; DVAVKVIDK
T13 construct: purchased ActivX Biosciences (KiNativ)
Description: as §2, §1

[19] = test system: T14, RSK1 domain1; experiment: KiNativ profiling in H3255 cells; format: cell-based, human; details: 2.5 µM
T14 construct: RSK1 domain1; purchased ActivX Biosciences (KiNativ)
Description: as §2, §1

[20] = test system: T15, SGK3; experiment: KiNativ profiling in H3255 cells; format: cell-based, human; details: 2.5 µM; Lys1; FYAVKVLQK
T15 construct: purchased ActivX Biosciences (KiNativ)
Description: as §2, §1

[21] = test system: SRPK1, SRPK2; experiment: KiNativ profiling in H3255 cells; format: cell-based, human; details: 2.5 µM; Lys1; FVAMKVVK
Description: as §2, §1

[22] = test system: TAO1, TAO3; experiment: KiNativ profiling in H3255 cells; format: cell-based, human; details: 2.5 µM; Lys2; DIKAGNILLTEPGQVK
Description: as §2, §1

[23] = test system: T16, CDK2; experiment: KiNativ profiling in H3255 cells; format: cell-based, human; details: 2.5 µM
T16 construct: purchased ActivX Biosciences (KiNativ)
Description: as §1
(§3) Human EGFR kinase domain (residues 696-1022) with T790M and V948R mutations was cloned with an N-terminal, protease cleavable His -GST tag. Recombinant protein was expressed in SF9 insect cells using baculovirus generated from the pFastBac system (Thermo Fisher) .
(§4) Briefly, cells at a density of ~2x10^6 cells/mL were infected with 1% (v/v) virus stock and grown for ~72 hours before harvesting and freezing the cell pellet . Infected cells were lysed in buffer A (50 mM Tris pH 8.0, 500 mM NaCl, 5% glycerol, 0.5 mM Tris(2-carboxyethyl)phosphine [TCEP]), ultracentrifuged at >200,000 rcf for 1 h, and the supernatant flo wed through Ni-NTA resin by gravity. The resin was washed with buffer A supplemented with 40 mM imidazole by […]

[24] = test system: FGFR1, FMS, PDGFRb, TYRO3; experiment: KiNativ profiling in H3255 cells; format: cell-based, human; details: 2.5 µM; Lys1; VAVKMLK
Description: as §1, §3, §4

[25] = test system: T17, MET; experiment: KiNativ profiling in H3255 cells; format: cell-based, human; details: 2.5 µM; Activation Loop; DMYDKEYYSVHNK
T17 construct: purchased ActivX Biosciences (KiNativ)
Description: as §1, §3, §4

[26] = Glutathione (GSH) reactivity; format: in vitro ADME; details: glutathione (GSH) in buffer; read-out: half-life of conjugation with glutathione (GSH)
Description: Table S3. Glutathione (GSH) reactivity of ZNL-0056
*NGSH1440: the abbreviation of no glutathione. No glutathione is added into NGSH sample
(replaced by buffer) during the 24 hour-incubation R2 is the correlation coefficient of the linear
regression for the determination of kinetic constant.
(1 picture or pasted object on this page, not shown here)

[27] = Protein Kinase Domain, ISMADVKFSFQCPGR
[28] = Activation Loop, LTDFGLSKEAIDHEKK

SMILES	Inhibition [1] [%]	Inhibition [2] [%]	Inhibition [3] [%]	Inhibition [4] [%]	Inhibition ([5]; Lys1, WQGNDIVVKVLK) [%]	Inhibition [5, 27] [%]	Inhibition [6] [%]	Inhibition [7] [%]	Inhibition [8] [%]	Inhibition [9] [%]	Inhibition ([10]; EHPFLVKGGEDLR) [%]	Inhibition ([10]; KGGSWIQEINVAEK) [%]	Inhibition [11] [%]	Inhibition [12] [%]	Inhibition [13] [%]	Inhibition [14] [%]	Inhibition [15] [%]	Inhibition ([16]; IQKSSNFGYITSCYK) [%]	Inhibition ([16]; VMDPTKILITGK) [%]	Inhibition [17] [%]	further results
C=CC(=O)Nc1cc(Nc2nccc(-c3cn(C)c4ccccc34)n2)c(OC)cc1N(C)CCN(C)C [Osimertinib, osimertinib, reference compound]	3.2	24.8	24.6	16.3	-18.1	14.1	-25.4	-16.2	40.2	21.2	29.9	7.8	12.1	-26.0	-40.8	-4.8	-2.3	10.9	3.7	-20.8	Inhibition [18]: -2.1%; Inhibition [19, 28]: -14.9%; Inhibition ([19]; Lys1, KVTRPDSGHLYAMKVLK): -11.7%; Inhibition [20]: 2.9%; Inhibition [21]: 21.8%; Inhibition [22]: 6.6%; Inhibition ([23]; Lys1, LTGEVVALKK): 14.1%; Inhibition ([23]; Lys2, DLKPQNLLINTEGAIK): 9.6%; Inhibition [24]: 0.6%; Inhibition [25]: -2.3%; half-life [26]: 49 min
C=CC(=O)Nc1cc(C(=O)Nc2nc3cccc(C)c3n2[C@@H]2CCCCN(C(=O)C=C)C2)cs1 [ZNL-0056]	-8.1	-0.339	-1.9	9.3	-6.7	-9.2	-24.3	18.0	23.6	-15.4	26.5	-18.3	5.5	17.8	15.3	12.7	1.9	-8.7	10.8	-1.5	Inhibition [18]: 10.2%; Inhibition [19, 28]: 5.8%; Inhibition ([19]; Lys1, KVTRPDSGHLYAMKVLK): -35.1%; Inhibition [20]: 10.1%; Inhibition [21]: -8.1%; Inhibition [22]: -18.6%; Inhibition ([23]; Lys1, LTGEVVALKK): 0.6%; Inhibition ([23]; Lys2, DLKPQNLLINTEGAIK): 13.1%; Inhibition [24]: -17.7%; Inhibition [25]: -17.6%; half-life [26]: 36 min
